# According to paper PMC6284057, “Combined Antibacterial Effects of Goat Cathelicidins With Different Mechanisms of Action” (Frontiers in Microbiology, 2018):
# Like-named read-outs stand apart in the source and are kept apart here. No end group written: not given here.
# How the values were obtained:
# E. faecalis ATCC 29212 = assay type: cell-based, Enterococcus faecalis; settings: ATCC 29212, 24 h
# Protocol: Briefly, mid-log phase bacterial test cultures were diluted with the 2× Mueller-Hinton broth (MH, Sigma) supplemented with 1.8% NaCl or without it so that to reach a final cell concentration of 10^6 CFU/ml. 50 μl aliquots of the obtained bacterial suspension were added to 50 μl of the peptide solutions serially diluted with 0.1% water solution of bovine serum albumin (BSA) in 96-well flat-bottom polystyrene microplates (Eppendorf #0030730011). […] The results were expressed as the median values determined on the basis of at least three independent experiments performed in triplicate.
# E. coli (XDR CI 1057) [1] = experiment: microbe, parasite or virus in culture; assay type: cell-based, Escherichia coli
# Protocol: (§1) Antimicrobial assay was performed as described previously ([Panteleev et al., 2017b]). Briefly, mid-log phase bacterial test cultures were diluted with the 2× Mueller-Hinton broth (MH, Sigma) supplemented with 1.8% NaCl or without it so that to reach a final cell concentration of 10^6 CFU/ml. 50 μl aliquots of the obtained bacterial suspension were added to 50 μl of the peptide solutions serially diluted with 0.1% water solution of bovine serum albumin (BSA) in 96-well flat-bottom polystyrene microplates (Eppendorf #0030730011). After incubation at 37°C and 900 rpm for 24 h the minimum inhibitory concentrations (MIC) were determined as the lowest peptide concentrations that prevented growth of a test microorganism observed as visible turbidity. The results were expressed as the median values determined on the basis of at least three independent experiments performed in triplicate.
# E. cloacae (XDR CI 4172) [2] = assay type: cell-based, Enterobacter cloacae; settings: for Fractional inhibitory concentration (FICA, FICB): [X]/MICX; for Fractional inhibitory concentration (FICA, FICB) / MIC of the peptide when used together ([A], [B]): 0.9% NaCl; for MIC of the peptide when used together ([A], [B]): in the mix ChMAP-28 + mini-ChBac7.5Nα, other peptide at sub-inhibitory concentration; for MIC of the individual peptide (MICA, MICB): peptide used individually, medium with physiological NaCl (0.9%), median of 3 experiments in duplicate
# Protocol: as §1
# (§2) The peptides were twofold serially diluted with 0.1% BSA in 96-well microplates (Eppendorf #0030730011). Then, the peptide solutions were mixed in the new test plate crosswise in such a way that the resulting checkerboard contained each combination of the cathelicidins in eight doubly increasing concentrations, with wells containing the highest concentration of each peptide at opposite corners ([Berditsch et al., 2015]). Then, the antimicrobial assay was performed as described in the previous section. […] The results were expressed as the median values determined on the basis of three independent experiments performed in duplicate. Estimation of synergistic effects of different cathelicidins was performed by calculating the fractional inhibitory concentration index (FICI) according to the equation: FICI = [À]/MICÀ + [B]/MICB, where MICÀ and MICB are the MICs of the individual substances, while [A] and [B] are the MICs of A and B when used together. A synergistic effect was defined at a FICI ≤ 0.5.
# E. coli ML-35p [3] = assay type: cell-based, Escherichia coli; settings: for Fractional inhibitory concentration (FICA, FICB): [X]/MICX; for Fractional inhibitory concentration (FICA, FICB) / MIC of the peptide when used together ([A], [B]): 0.9% NaCl; for MIC of the peptide when used together ([A], [B]): in the mix ChMAP-28 + mini-ChBac7.5Nα, other peptide at sub-inhibitory concentration; for MIC of the individual peptide (MICA, MICB): peptide used individually, medium with physiological NaCl (0.9%), median of 3 experiments in duplicate
# Protocol: as §1, §2
# E. coli (CI 214) [4] = assay type: cell-based, Escherichia coli; settings: CI 214, 24 h
# Protocol: as §1, §2
# E. coli (XDR CI 1057) [5] = assay type: cell-based, Escherichia coli; settings: for Fractional inhibitory concentration (FICA, FICB): [X]/MICX; for Fractional inhibitory concentration (FICA, FICB) / MIC of the peptide when used together ([A], [B]): 0.9% NaCl; for MIC of the peptide when used together ([A], [B]): in the mix ChMAP-28 + mini-ChBac7.5Nα, other peptide at sub-inhibitory concentration; for MIC of the individual peptide (MICA, MICB): peptide used individually, medium with physiological NaCl (0.9%), median of 3 experiments in duplicate
# Protocol: as §1, §2
# E. coli C600 = assay type: cell-based, Escherichia coli
# Protocol: as §1, §2
# E. coli BL21 (DE3) = assay type: cell-based, Escherichia coli; settings: BL21, 24 h
# Protocol: as §1, §2
# [6] = test system: A. baumannii (XDR CI 2675); experiment: microbe, parasite or virus in culture; assay type: cell-based, Acinetobacter baumannii; settings: read-out: Minimum inhibitory concentration
# Protocol: as §1
# E. cloacae (XDR CI 4172) [7] = experiment: microbe, parasite or virus in culture; assay type: cell-based, Enterobacter cloacae; settings: read-out: Minimum inhibitory concentration
# Protocol: as §1
# [8] = test system: mammalian cell lines (HEK293T, HEF); experiment: Cytotoxicity (MTT assay); assay type: cell-based, human; settings: HEK293T and HEF, 24 h incubation
# Protocol: (§3) Hemolytic activity of the peptides was tested against the fresh suspension of human red blood cells (hRBC) using the hemoglobin release assay as described previously ([Panteleev et al., 2016]). Three experiments were performed with the hRBC from blood samples obtained from independent donors. The obtained data were represented as average means with standard deviations. The cytotoxicity of the peptides against HEK293T (transformed human embryonic kidney cells) and HEF (human embryonic fibroblasts) cell lines was studied using the colorimetric 3-(4,5-dimethylthiazol-2-yl)-2,5-diphenyltetrazolium bromide (MTT) dye reduction assay according to ([Panteleev and Ovchinnikova, 2017]). Three independent experiments were performed for each peptide. Half maximal inhibitory concentration (IC50) values were estimated as described previously ([Kuzmin et al., 2018]).
# S. aureus 209P = assay type: cell-based, Staphylococcus aureus; settings: 24 h
# Protocol: as §1, §2
# E. coli ML-35p [9] = assay type: cell-based, Escherichia coli; settings: Mueller-Hinton broth, 10^6 CFU/ml, 0.1% BSA, 37°C, 24 h, median of at least 3 experiments
# Protocol: as §1
# E. coli (CI 214) [10] = assay type: cell-based, Escherichia coli; settings: CI 214, 24 h; remark: listed apart in the source
# Protocol: as §1
# [11] = test system: K. pneumoniae (XDR CI 1056); experiment: microbe, parasite or virus in culture; assay type: cell-based, Klebsiella pneumoniae; settings: Table S2, XDR clinical isolate; NaCl content of medium not stated; read-out: Minimum inhibitory concentration
# Protocol: as §1
# [12] = test system: P. aeruginosa (XDR CI 1049); experiment: microbe, parasite or virus in culture; assay type: cell-based, Pseudomonas aeruginosa; settings: Table S2, XDR clinical isolate; NaCl content of medium not stated; read-out: Minimum inhibitory concentration
# Protocol: as §1
# [13] = test system: P. mirabilis (XDR CI 3423); experiment: microbe, parasite or virus in culture; assay type: cell-based, Proteus mirabilis; settings: Table S2, XDR clinical isolate; NaCl content of medium not stated; read-out: Minimum inhibitory concentration
# Protocol: as §1
# HEK293T cells = experiment: Cytotoxicity (MTT assay); assay type: cell-based, human; settings: 24 h incubation, 3 independent experiments, read-out: IC50 against HEK293T cells
# Protocol: as §3
# [14] = Table 4, strain at 0 days of selection experiment (selection in MH broth with 0.9% NaCl)
# [15] = 0.9% NaCl, Mueller-Hinton broth, 10^6 CFU/ml, 0.1% BSA, 37°C, 24 h, median of at least 3 experiments
# [16] = Without NaCl, Mueller-Hinton broth, 10^6 CFU/ml, 0.1% BSA, 37°C, 24 h, median of at least 3 experiments
# [17] = Table S2, XDR clinical isolate, NaCl content of medium not stated
Sequence,Minimum inhibitory concentration (E. coli (XDR CI 1057) [1]; [14]) [µM],"Fractional inhibitory concentration (FICA, FICB) (E. cloacae (XDR CI 4172) [2])","MIC of the peptide when used together ([A], [B]) (E. cloacae (XDR CI 4172) [2]) [µM]","MIC of the individual peptide (MICA, MICB) (E. cloacae (XDR CI 4172) [2]) [µM]","Fractional inhibitory concentration (FICA, FICB) (E. coli ML-35p [3])","MIC of the peptide when used together ([A], [B]) (E. coli ML-35p [3]) [µM]","MIC of the individual peptide (MICA, MICB) (E. coli ML-35p [3]) [µM]","MIC of the individual peptide (MICA, MICB) (E. coli (CI 214) [4]) [µM]","Fractional inhibitory concentration (FICA, FICB) (E. coli (XDR CI 1057) [5])","MIC of the peptide when used together ([A], [B]) (E. coli (XDR CI 1057) [5]) [µM]","MIC of the individual peptide (MICA, MICB) (E. coli (XDR CI 1057) [5]) [µM]","Fractional inhibitory concentration (FICA, FICB) (E. coli BL21 (DE3))","MIC of the individual peptide (MICA, MICB) (E. coli BL21 (DE3)) [µM]","MIC [6, 15] [µM]","MIC [6, 16] [µM]",MIC (E. cloacae (XDR CI 4172) [7]; [15]) [µM],MIC (E. cloacae (XDR CI 4172) [7]; [16]) [µM],"Fractional inhibitory concentration (FICA, FICB) (S. aureus 209P)","MIC of the individual peptide (MICA, MICB) (S. aureus 209P) [µM]",Minimum inhibitory concentration (E. coli ML-35p [9]; 0.9% NaCl) [µM],further results
RRLRPRRPRLPRPRPRPRPRPR [mini-ChBac7.5Nα],8,0.125,0.5,4,0.25,1,4,>64,0.25,2,8,0.125,8,>32,2,4,1,0.125,16,4,"Minimum inhibitory concentration (E. faecalis ATCC 29212): >32 µM; Fractional inhibitory concentration (FICA, FICB) (E. coli C600; C600, 24 h): 0.25; MIC of the individual peptide (MICA, MICB) (E. coli C600; C600, 24 h): 4 µM; concentrations at which cytotoxic activity was shown [8]: > 25 µM; Minimum inhibitory concentration (E. coli ML-35p [9]; Without NaCl): 0.5 µM; MIC (E. coli (CI 214) [10]): 4 µM"
GRFKRFRKKLKRLWHKVGPFVGPILHY [ChMAP-28],0.125,0.125,0.03,0.25,0.125,0.008,0.06,0.06,0.063,0.008,0.125,0.25,0.06,0.25,0.03,0.25,0.125,0.063,0.5,0.06,"Minimum inhibitory concentration (E. coli (XDR CI 1057) [1]; [17]): 0.125 µM; MIC [11]: 0.125 µM; MIC [12]: 0.5 µM; MIC [13]: 0.5 µM; Fractional inhibitory concentration (FICA, FICB) (E. coli (CI 214) [4]): 0.25; Fractional inhibitory concentration (FICA, FICB) (E. coli C600; [X]/MICX, 0.9% NaCl): 0.125-0.25; MIC of the individual peptide (MICA, MICB) (E. coli C600; peptide used individually, medium with physiological NaCl (0.9%), median of 3 experiments in duplicate): 0.125 µM; MIC [6, 17]: 0.25 µM; MIC (E. cloacae (XDR CI 4172) [7]; [17]): 0.25 µM; IC50 (HEK293T cells): ~3.5 µM; Minimum inhibitory concentration (E. coli ML-35p [9]; Without NaCl): 0.06 µM"
